Measurements from PubChem BioAssay AID743276 (Broad Institute, 2014).
Inconclusive results are not listed. Active and inactive are the calls of the source.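 The calls were made as follows: active = compounds whose fitted cell loss curve, in every repeat run, reached half effect below twice the top dose; inconclusive = repeat runs disagree, or runs show weak or poorly fitted drops; inactive = every repeat run called inactive.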

Test system: not listed separately
Assay: CAPAN-1 cell growth inhibition, dose response, imaging, dry powder, set 3 (AID 743276)
Conditions: CAPAN-1 cell number, Hoechst imaging, 14 days; at 50 µM (top of the series)

Question: For CCN(CC)CCCN(Cc1cc2cc3c(cc2[nH]c1=O)OCO3)C(=S)NCCCN(C)C, which activity change, negative = fewer cells is on record?
Answer: Its activity change, negative = fewer cells is -1.27% (inactive).

Question: With CN(C)CCCNC(=S)N(CCN(C)C)Cc1cc2cc3c(cc2[nH]c1=O)OCCO3 as the compound, how does the activity change, negative = fewer cells read?
Answer: Its activity change, negative = fewer cells is -2.03% (inactive).

Question: Which activity change, negative = fewer cells does the source give for O=c1c2c(-c3ccccc3)csc2nc2c3ccccc3c(NCCN3CCOCC3)nn12 here?
Answer: The activity change, negative = fewer cells was -15.7% (inactive).

Question: Which activity change, negative = fewer cells does the source give for CCCNc1nc(Cl)nc(NCc2cccnc2)n1 here?
Answer: The activity change, negative = fewer cells was -7.79% (inactive).

Test system: CAPAN-1 cell number, Hoechst imaging, 14 days
Assay: as above
Conditions: not given

Question: For CN(C)CCCNC(=S)NCC(c1ccc(Cl)cc1Cl)c1c[nH]c2ccccc12 (stereo not drawn), which AC50 is on record?
Answer: Its AC50 is 27.4 µM.

Question: Which AC50 does the source give for CCCCN(CC)CCNC(=O)CCC(=O)Nc1ccc2nc(N3CCN(C)CC3)cc(C)c2c1 here?
Answer: The AC50 was 25.1 µM.

Question: With Cc1cc(C)c2c(c1)c1nnc(SCCN3CCCCC3)nc1n2C as the compound, how does the AC50 read?
Answer: The AC50 was 42.3 µM.

Question: Which AC50 does the source give for Cc1ccc2nc(-c3ccc(NC(=S)NC4CC(C)(C)NC(C)(C)C4)cc3)sc2c1 here?
Answer: Its AC50 is 12.1 µM.

Question: For COc1ccc2oc(C(=O)c3ccccc3)c(NC(=O)CN3CCN(C)CC3)c2c1, which AC50 is on record?
Answer: Its AC50 is 13.5 µM.

Question: Which AC50 does the source give for C=C1Nc2cc(-c3ccc(Cl)cc3)nn2C(NCCN(C)C)=C1C here?
Answer: The AC50 was 8.39 µM.

Question: Which AC50 does the source give for Cc1cc(N2CCN(C)CC2)nc2ccc(NC(=S)NCCCN3CCN(C)CC3)cc12 here?
Answer: Its AC50 is 43.7 µM.

Question: With c1ccc(-c2cc(N3CCC(N4CCCC4)CC3)n3nccc3n2)cc1 as the compound, how does the AC50 read?
Answer: The AC50 was 46.1 µM.

Question: Which AC50 does the source give for CCN(CC)CCNC(=S)Nc1ccc2nc(N3CCN(CC)CC3)cc(C)c2c1 here?
Answer: The AC50 was 13.8 µM.

Question: For CCCCN(CC)CCNC(=O)c1cc2c(-c3ccc(Cl)cc3)nn(C)c2s1, which AC50 is on record?
Answer: Its AC50 is 3.57 µM.

Question: With CCN1CCN(C(=S)Nc2ccc3nc(N4CCN(C)CC4)cc(C)c3c2)CC1 as the compound, how does the AC50 read?
Answer: The AC50 was 10.7 µM.

Question: For CCN(CC)CCN(C(=O)C1=COCCO1)c1nc2c(OC)ccc(OC)c2s1, which AC50 is on record?
Answer: The AC50 was 47.5 µM.

Question: For COc1ccc(C2NCCc3c2[nH]c2ccccc32)cc1COc1ccc(F)cc1 (stereo not drawn), which AC50 is on record?
Answer: The AC50 was 18.7 µM.

Question: Which AC50 does the source give for Cc1c(C(=O)Nc2ccc(S(=O)(=O)N(C)C3CCN(C)CC3)cc2)oc2c(Cl)cccc12 here?
Answer: Its AC50 is 11.2 µM.

Question: For CN1CCN(CCCNC(=O)c2cc3c(-c4ccc(Cl)cc4)nn(C)c3s2)CC1, which AC50 is on record?
Answer: Its AC50 is 10.5 µM.

Question: For COc1ccc(-c2oc3ncnc(NCCCN4CCOCC4)c3c2-c2ccc(OC)cc2)cc1, which AC50 is on record?
Answer: The AC50 was 43.8 µM.

Question: With Cc1cc(C)c2sc(N(CCCN(C)C)C(=O)CN3C(=O)c4ccccc4C3=O)nc2c1 as the compound, how does the AC50 read?
Answer: The AC50 was 22.2 µM.

Question: For Cc1ccc2sc(N(CCCN(C)C)C(=O)c3ccc(S(=O)(=O)N(C)C4CCCCC4)cc3)nc2c1C, which AC50 is on record?
Answer: Its AC50 is 24 µM.

Question: For CCN1CCc2c(sc(NC(=O)c3ccc(OC)cc3OC)c2C(N)=O)C1, which AC50 is on record?
Answer: The AC50 was 32.7 µM.

Question: For CCCN1CCN(CCCNC(=S)Nc2ccc3nc(N4CCN(CC)CC4)cc(C)c3c2)CC1, which AC50 is on record?
Answer: Its AC50 is 24.7 µM.

Question: With CCN1CCN(c2cc(C)c3cc(NC(=O)c4ccccn4)ccc3n2)CC1 as the compound, how does the AC50 read?
Answer: Its AC50 is 35.6 µM.

Question: With CCCCN(CC)CCCNC(=S)Nc1ccc2nc(N3CCN(C)CC3)cc(C)c2c1 as the compound, how does the AC50 read?
Answer: Its AC50 is 37.8 µM.

Question: With Cc1ccc2sc(N(CCCN(C)C)C(=O)c3ccc(S(=O)(=O)N(C)Cc4ccccc4)cc3)nc2c1C as the compound, how does the AC50 read?
Answer: The AC50 was 9.25 µM.

Question: Which AC50 does the source give for CCN1CCN(CCCNC(=O)C2CCN(c3nnc(-n4c(C)ccc4C)s3)CC2)CC1 here?
Answer: Its AC50 is 20.5 µM.

Question: With COc1ccccc1Nc1nc(NCCO)c2ccccc2n1 as the compound, how does the AC50 read?
Answer: Its AC50 is 24.6 µM.

Question: Which AC50 does the source give for Cc1cc(C)n(-c2nc(NCCN(C)C)c3c4c(sc3n2)CCCC4)n1 here?
Answer: Its AC50 is 15.4 µM.

Question: For CN(C)CCCN(C(=O)c1nc2ccccc2s1)c1nc2ccc(F)cc2s1, which AC50 is on record?
Answer: The AC50 was 17 µM.

Question: With Cn1nc(-c2ccc(Cl)cc2)c2cc(C(=O)NCCCN3CCCC3)sc21 as the compound, how does the AC50 read?
Answer: The AC50 was 3.72 µM.

Question: For CCCN(CCC)CCCNC(=S)Nc1ccc2nc(N3CCN(CC)CC3)cc(C)c2c1, which AC50 is on record?
Answer: The AC50 was 22.8 µM.

Question: For COc1ccccc1Nc1nc(NCCCO)c2ccccc2n1, which AC50 is on record?
Answer: Its AC50 is 31.1 µM.

Question: With OCCNc1nc(Nc2ccccc2F)nc2ccccc12 as the compound, how does the AC50 read?
Answer: The AC50 was 32 µM.

Question: With Cc1ccc(C(=O)c2oc3ccc(Cl)cc3c2NC(=O)CN2CCN(C)CC2)cc1 as the compound, how does the AC50 read?
Answer: Its AC50 is 9.78 µM.

Question: Which AC50 does the source give for CC1(C)CC(NC(=O)c2ccc(Cl)c(S(=O)(=O)N(Cc3ccccc3)c3ccccc3)c2)CC(C)(C)N1 here?
Answer: The AC50 was 12.8 µM.

Question: With CN(C)CCCN(C(=O)c1ccc(C(=O)c2ccccc2)cc1)c1nc2cc3c(cc2s1)OCO3 as the compound, how does the AC50 read?
Answer: The AC50 was 12.7 µM.
